# Reference: patent US4225619A, “Substituted fluoracylresorcinols” (Boehringer Ingelheim GmBH, priority 1976, dated 1980)
# How the values were obtained:
# Aspergillus niger [1] = assay: Agar diffusion test (hole-test); format: cell-based; conditions: 168 h, 27° C. for 7 days, read-out: MIC, A.D.T., Aspergillus niger
# Method: (§1) The inhibitory effect on bacteria and fungi was examined by the serial dilution test and the agar diffusion test (hole-test). As bacteria were used: Staphylococcus aureus SG 511, Streptococcus Aronson, Streptococcus pyogenes At CC 86 68; as fungi: Candida albicans AT CC 10231, Trichophyton mentagrophytes AT CC 9129 and Aspergillus niger.
# (§2) 3. Sabouraud agar: for C. alb., Trich. ment., A. niger
# (§3) The age of the primary cultures is 24 hours for bacteria and 14 days for fungi. The standardization of the suspension of microorganisms is effected using a photometer according to Eppendorf (test tube .phi.14 mm, filter 546 nm) and a suspension for comparison consisting of barium sulfate, this suspension being created by addition of 3.0 ml of 1% barium chloride solution to 97 ml of 1% sulfuric acid. After the standardization St. aureus SG 511 was diluted 1:1000 and Sc. pyogenes and Aronson 1:100 by means of sodium chloride solution. The fungi were used in an undiluted state.
# (§4) 40 mgm of the substance were put into a 10 ml measuring flask and filled up to the mark with the solvent (corresponds to a dilution of 1:250=4000 μg/ml).
# (§5) The dilutions to the concentrations under test were effected with distilled water or the respective solvent.
# (§6) 19 ml of the nutrient medium were filled into sterile Petri dishes of a diameter of 8 cm and dried. Subsequently the agar plates were charged with 4 ml of seed agar. 100 ml of seed agar contain 1.25 ml of the suspension of microorganisms, an agar plate thus containing 0.05 ml of the suspension of microorganisms. After solidification of the agar, 5 holes of a diameter of 5 mm were punched into the plates and filled with 0.05 ml of the correspondingly concentrated substance solution.
# (§7) Control tests merely using the solvent are to be carried out simultaneously.
# (§8) Bacteria were incubated at 37° C. for 18-20 hours and fungi at 27° C. for 7 days.
# (§9) The diameter of the area of inhibition in mm was measured after having deducted the diameter of the hole.
# [2] = system: Candida albicans AT CC 10231; assay: Agar diffusion test (hole-test); format: cell-based; conditions: ATCC10231, 168 h, 27° C. for 7 days, read-out: MIC, A.D.T., Candida albicans
# Method: as §1, §2, §3, §4, §5, §6, §7, §8, §9
# [3] = system: Trichophyton mentagrophytes AT CC 9129; assay: Agar diffusion test (hole-test); format: cell-based; conditions: ATCC9129, 168 h, 27° C. for 7 days, read-out: MIC, A.D.T., Trichophyton mentagrophytes
# Method: as §1, §2, §3, §4, §5, §6, §7, §8, §9
# Aspergillus niger [4] = assay: Serial dilution test; format: cell-based; conditions: for MIC: Aspergillus niger, 168 h, 27° C. for 7 days, read-out: MIC, S.D.T., Aspergillus niger
# Method: as §1
# (§10) 3. Sabouraud broth: for C. alb., Trich. mnt., A. niger
# (§11) The age of the primary cultures is 24 hours for bacteria and 14 days for fungi. The standardization of the suspension of microorganisms is effected using a photometer according to Eppendorf (test tube .phi.14 mm, filter 546 nm) and a suspension for comparison consisting of barium sulfate, this suspension being created by adition of 3.0 ml of 1% barium chloride solution to 97 ml of 1% sulfuric acid. After the standardization the bacteria were further diluted to a concentration of 1:1000 by means of sodium chloride solution, the fungi were used in an undiluted state.
# (§12) 40 mgm of the substance were put into a 10 ml measuring flask and filled up to the mark with the solvent (corresponds to a dilution of 1:250=4000 μg/ml). The further dilution series was standardized with distilled water or the respective solvent and the following substance concentrations were prepared: 1000; 250; 62.5 μg/ml.
# (§13) The tubes were filled with 4.9 ml of the corresponding liquid nutrient medium. Then 0.1 ml of the substance dilution prepared above was added to each tube, so that the mentioned final concentrations were present. Finally each tube was inoculated with 0.1 ml of the standardized suspension of microorganisms. Control tests merely using the solvent are to be carried out simultaneously.
# as §8
# (§14) The measurement is carried out macroscopically defining the minimal inhibitory concentration (the lowest still microbiostatically effective concentration).
# [5] = system: Candida albicans AT CC 10231; assay: Serial dilution test; format: cell-based; conditions: for MIC: Candida albicans, ATCC10231, 168 h, 27° C. for 7 days, read-out: MIC, S.D.T., Candida albicans
# Method: as §1, §10, §11, §12, §13, §8, §14
# [6] = system: Trichophyton mentagrophytes AT CC 9129; assay: Serial dilution test; format: cell-based; conditions: ATCC9129, 168 h, 27° C. for 7 days, read-out: MIC, S.D.T., Trichophyton mentagrophytes
# Method: as §1, §10, §11, §12, §13, §8, §14
# [7] = target: glucose-6-phosphate-dehydrogenase; assay: Inhibition of glucose-6-phosphate-dehydrogenase (G6PDH); format: biochemical; conditions: for G6PDH-inhibition Ed50, Immediate Inhibition: 25° C. for 5 minutes preincubation; for G6PDH-inhibition Ed50, Inhibition of Incubation: 37° C. for 60 minutes preincubation
# Method: Measurement of the inhibition of the glucose-6-phosphatedehydrogenase
# The equilibrium was observed:
# Glucose-6-phosphate+NADP^+ G6-DH gluconic
# acid-6-phosphate+NADPH+H^+
# (NADP=nicotinamide-adenine-dinycleotide-phosphate, G6P-DH=gluconic acid-6-phosphate-dehydrogenase)
# The formation velocity of NADPH is a measure for the enzyme activity; it may be observed by means of the extinction increase at 340, 334 or 366 nm per unit of time.
# 0.025 ml of glucose-6-phosphate-dehydrogenase (Boehringer Mannheim) were filled up to 10 ml of distilled water (solution I). 100 mgm of nicotinamide-adenine-dinucleotide-phosphate were dissolved in 13 ml of distilled water (solution II). 47.2 mgm of glucose-6-phosphate were dissolved in further 10 ml of distilled water (solution 3). Simultaneously a buffer solution (solution IV) was prepared as follows: 0.28 gm of triethanolamine-hydrochloride and 1.461 gm of ethylene diaminotetraacetic acid-disodium salt were dissolved in 1 liter of distilled water and adjusted to a pH of 7.6 with sodium hydroxide solution. The substance under test was dissolved in dimethyl formamide or ethanol (solution V). Tested concentrations: 50; 25; 12.5; 6.25; 3.125; 1.56 and 0.78 μg/ml.
# 0.1 ml of solution I, 0.1 ml of solution II, 2.67 ml of solution IV and 0.03 ml of solution V were mixed and kept at 25° C. for 5 minutes. Then 0.1 ml of solution III was added, mixed and the alteration of extinction was determined spectrophotometrically at 366 nm for 3 minutes.
# 0.1 ml of solution I, 0.1 ml of solution II, 2.67 ml of solution IV and 0.03 ml of solution V were mixed and kept at 37° C. for 60 minutes. Then 0.1 ml of solution III was added, mixed and the alteration of extinction was measured spectrophotometrically at 366 nm for 3 minutes.
# The inhibitory values were calculated from the average values of three measurements (alteration of extinction per minute) compared with controls, which received the pure solvent as the inhibitory solution. Then the ED50 was calculated according to Reed and Muench from the inhibitory values for the various concentrations.
# [8] = reduced growth at this concentration
MIC (Aspergillus niger [1]),MIC [2],MIC [3],MIC (Aspergillus niger [4]),MIC [5],MIC [6],"G6PDH-inhibition Ed50, Immediate Inhibition [7]","G6PDH-inhibition Ed50, Inhibition of Incubation [7]",Structure (SMILES),"Concentration with reduced growth (value in brackets), S.D.T., Aspergillus niger (Aspergillus niger [4]; [8])","Concentration with reduced growth (value in brackets), S.D.T., Candida albicans [5, 8]"
250 µg/mL,1000 µg/mL,250 µg/mL,20 µg/mL,20 µg/mL,5 µg/mL,34.5 µg/mL,30 µg/mL,"CCc1cc(C(=O)C(F)(F)F)c(O)cc1O [B, 5-Ethyl-2,4-dihydroxy-trifluoroacetophenone, reference compound]",–,–
250 µg/mL,1000 µg/mL,250 µg/mL,20 µg/mL,80 µg/mL,20 µg/mL,> 50 µg/mL,33 µg/mL,"O=C(c1ccc(O)cc1O)C(F)(F)F [A, 2,4-Dihydroxy-trifluoroacetophenone, reference compound]",–,–
62.5 µg/mL,1000 µg/mL,≤ 15.6 µg/mL,–,–,1.25 µg/mL,–,–,"CC1CCC(c2c(O)ccc(C(=O)C(F)(F)F)c2O)CC1 (stereo not drawn) [H, 2,4-Dihydroxy-3-(4'-methyl)-cyclohexyl-trifluoro-acetophenone]",80 µg/mL,80 µg/mL
250 µg/mL,250 µg/mL,≤ 15.6 µg/mL,20 µg/mL,20 µg/mL,1.25 µg/mL,37.7 µg/mL,27.7 µg/mL,"CC(C)Cc1c(O)ccc(C(=O)C(F)(F)F)c1O [F, 2,4-Dihydroxy-3-iso-butyl-trifluoroacetophenone]",–,–
1000 µg/mL,1000 µg/mL,62.5 µg/mL,5 µg/mL,20 µg/mL,1.25 µg/mL,37.5 µg/mL,20 µg/mL,"CCc1c(O)ccc(C(=O)C(F)(F)F)c1O [C, 3-Ethyl-2,4-dihydroxy-trifluoroacetophenone, reference compound]",–,–
> 4000 µg/mL,> 4000 µg/mL,> 4000 µg/mL,> 80 µg/mL,> 80 µg/mL,> 80 µg/mL,> 50 µg/mL,> 50 µg/mL,"COc1ccc(C(=O)C(F)(F)F)c(OC)c1 [D, 2,4-Dimethoxy-trifluoroacetophenone, reference compound]",–,–
–,–,–,–,–,–,14.8 µg/mL,9.9 µg/mL,"CC(C)c1c(O)ccc(C(=O)C(F)(F)F)c1O [P, 2,4-Dihydroxy-3-isopropyl-trifluoroacetophenone]",–,–
